Experimental data: US8202897B2, “Inhibitors of glutaminyl cyclases” (Probiodrug AG, priority 2007, dated 2012)

How the values were obtained:
[1] = target: glutaminyl cyclase (QC) (Homo sapiens, UniProt Q16769); assay: QC inhibitor assay (fluorometric/spectrophotometric QC activity assay with inhibitor added)
glutaminyl cyclase (QC), sequence (Q16769 29-361): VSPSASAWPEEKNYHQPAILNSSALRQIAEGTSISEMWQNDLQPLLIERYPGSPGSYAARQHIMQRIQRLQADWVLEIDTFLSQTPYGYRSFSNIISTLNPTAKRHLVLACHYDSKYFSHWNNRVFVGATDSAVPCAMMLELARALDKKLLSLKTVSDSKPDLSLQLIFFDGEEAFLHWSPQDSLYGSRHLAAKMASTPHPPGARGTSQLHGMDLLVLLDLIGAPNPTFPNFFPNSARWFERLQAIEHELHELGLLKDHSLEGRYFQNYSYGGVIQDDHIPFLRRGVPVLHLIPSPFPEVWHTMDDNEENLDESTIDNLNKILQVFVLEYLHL
Description: All measurements were performed with a BioAssay Reader HTS-7000Plus for microplates (Perkin Elmer) at 30° C. QC activity was evaluated fluorometrically using H-Gln-βNA. The samples consisted of 0.2 mM fluorogenic substrate, 0.25 U pyroglutamyl aminopeptidase (Unizyme, Hørsholm, Denmark) in 0.2 M Tris/HCl, pH 8.0 containing 20 mM EDTA and an appropriately diluted aliquot of QC in a final volume of 250 μl. Excitation/emission wavelengths were 320/410 nm. The assay reactions were initiated by addition of glutaminyl cyclase. QC activity was determined from a standard curve of β-naphthylamine under assay conditions. One unit is defined as the amount of QC catalyzing the formation of 1 μmol pGlu-βNA from H-Gln-βNA per minute under the described conditions.
In a second fluorometric assay, QC was activity determined using H-Gln-AMC as substrate. Reactions were carried out at 30° C. utilizing the NOVOStar reader for microplates (BMG labtechnologies). The samples consisted of varying concentrations of the fluorogenic substrate, 0.1 U pyroglutamyl aminopeptidase (Qiagen) in 0.05 M Tris/HCl, pH 8.0 containing 5 mM EDTA and an appropriately diluted aliquot of QC in a final volume of 250 μl. Excitation/emission wavelengths were 380/460 nm. The assay reactions were initiated by addition of glutaminyl cyclase. […] The kinetic data were evaluated using GraFit software.
Samples consisted of the respective QC substrate, 0.3 mM NADH, 14 mM α-Ketoglutaric acid and 30 U/ml glutamate dehydrogenase in a final volume of 250 μl. […] All samples were measured at 30° C., using either the [sequence]luor Plus or the Sunrise (both from TECAN) reader for microplates. Kinetic data was evaluated using GraFit software.
For inhibitor testing, the sample composition was the same as described above, except of the putative inhibitory compound added. For a rapid test of QC-inhibition, samples contained 4 mM of the respective inhibitor and a substrate concentration at 1 KM. For detailed investigations of the inhibition and determination of Ki-values, influence of the inhibitor on the auxiliary enzymes was investigated first. […] The inhibitory constant was evaluated by fitting the set of progress curves to the general equation for competitive inhibition using GraFit software.

Row | IC50 [1] | Ki [1] | melting point | Compound
1 | 13.2 µM | 2.19 µM |  | CCCCN/C(=C/[N+](=O)[O-])NCCCn1ccnc1 [Example 1, N-(3-(1H-imidazol-1-yl)propyl)-N-butyl-2-nitroethene-1.1-diamine]
2 | 7.93 µM | 0.95 µM |  | O=[N+]([O-])/C=C(\NCCCn1ccnc1)Nc1ccc2c(c1)OCO2 [Example 9, N-(1-(3-(1H-imidazol-1-yl)propylamino)-2-nitrovinyl)benzo[d][1.3]dioxol-5-amine]
3 | 8.89 µM | 0.92 µM |  | COc1ccc(N/C(=C/[N+](=O)[O-])NCCCn2ccnc2)c(OC)c1 [Example 10, N-(1-(3-(1H-imidazol-1-yl)propylamino)-2-nitrovinyl)-2.4-dimethoxy-benzenamine]
4 | 6.41 µM | 0.74 µM | 41 to 43 °C | COc1cc(N/C(=C/[N+](=O)[O-])NCCCn2ccnc2)cc(OC)c1OC [Example 11, N-(1-(3-(1H-imidazol-1-yl)propylamino)-2-nitrovinyl)-3.4.5-trimethoxy-benzenamine]
